Laboratory results reported in US10501499B2 (priority 2012, dated 2019).

Legend:
human PBMCs [1] = type: cell-based
human PBMCs [2] = type: cell-based; remark: listed apart in the source

Sequence | Extracellular Uptake (human PBMCs [1]) | Intracellular Uptake (human PBMCs [2])
RGTANWARVISRGANWAKVILRNWAKVI [BI330-83d] | 267.38 | 52.14
RGYLPAVGAPIRVIRVIAHGLRLR [BI310-511f] | 178.61 | 26.85
RGTANWARVISRANWAKVILRNWAKVI [BI330-83c] | 435.66 | 154.43
RGTANWARVISRRANWAKVILRNWAKVI [BI330-83b] | 518.60 | 120.10
RGYLPAVGAPIRRVIRVIAHGLRL [BI310-511g] | 171.31 | 66.74
RRGYLPAVGAPIRRVIRVIAHGLRLR [BI310-511b] | 466.71 | 67.29
RGYLPAVGAPIRRVIRVIAHGLRLR [BI310-511e] | 473.80 | 44.59
RGYLPAVGAPIRRRVIRVIAHGLRLR [BI310-511] | 227.46 | 22.62
RRGTANWARVISRANWAKVILRNWAKVI [BI330-83] | 364.04 | 194.69
RRGYLPAVGAPIRRVIRVIAHGLRL [BI310-511d] | 267.15 | 70.64
RRGYLPAVGAPIRRRVIRVIAHGLRL [BI310-511c] | 203.62 | 31.83
